Results as given in patent publication US5750531A, “Pyrimidine derivatives and processes for the preparation thereof” (Yuhan Corporation, priority 1994, dated 1998).

Columns and labels:
gastric secretion = assay: Inhibition of gastric secretion (pylorus ligation, Shay method); assay type: in vivo, Male Sprague-Dawley rats; settings: 20 mg/kg intraduodenally, 5 hours; for Relative Acid Output: acid output relative to omeprazole; for Rel. Vol.: gastric juice volume relative to omeprazole; for Rel. Conc.: acid concentration relative to omeprazole
Experimental: Inhibition of gastric secretion […] Under ether anesthesia, the abdomen was incised, and the pylorus was ligated. […] After closing the abdominal cavity, the rats were placed for 5 hours and then killed by cervical dislocation. The stomach was extracted to obtain gastric juice. The gastric juice was centrifuged at 1,000 g to remove precipitates. The amount and acidity of the gastric juice were measured. Relative volumes, relative acid concentrations and relative acid outputs of the test compounds were calculated from equations(I), (II) and (III) and the results are shown in Table 2. […] Group 3) (II) […] (III)

[1] = biological target: proton pump(H^+ /K^+ ATPase); assay: Inhibition of proton pump(H^+ /K^+ ATPase) activity; assay type: biochemical; settings: pH 6.0, 37° C., 30 minutes preincubation and 30 minutes reaction; read-out: IC50 Test compound
Experimental: Test 1: Inhibition of proton pump(H^+ /K^+ ATPase) activity
A proton pump enzyme source was prepared by the same method as in Experiment 1-1 of WO 94/14795. Further, the inhibitory effect of proton pump activity was measured by the same method as in Experiment 1-2 of WO 94/14795.
Namely, the proton pump activity stimulated by Mg^++ was used as a negative comparative group, and the activity stimulated by Mg^++ and K^+ was used as a positive comparative group. The comparative compound was omeprazole.
Test tubes were divided into 4 groups: Group 1 as negative comparative group(n=3), Group 2 as positive comparative group(n=3), Group 3(n=5×2) to be administered with the compound of the present invention and Group 4(n=5×2) to be administered with the comparative compound.
The inhibitory effects of Groups 3 and 4 on proton pump activity were measured by employing the compound prepared in Example and omeperazole, respectively, each of which was dissolved in dimethylsulfoxide at 5 different concentrations.
To each of Groups 1, 2, 3 and 4 were added 100 μl of magnesium chloride(40 mM) dissolved in 40 mM Tris-HCl buffer(pH 6.0) and 100μ of the enzyme source. Then, 50μ of potassium chloride(50 mM) and 50 μl of ammonium chloride(6 mM) dissolved in 40 mM Tris-HCl buffer(pH 6.0) were added to all groups except for Group 1.
10 μl of dimethylsulfoxide was added to each of Groups 1 and 2; and to Group 3 was added 10 μl of the solution in which the compound prepared in Example was dissolved in dimethylsulfoxide at 5 different concentrations(n=5×2). To Group 4, 10 μl of the solution prepared by dissolving omeprazole in dimethylsulfoxide at 5 different concentrations(37.6, 21.4, 12.2, 7.0 and 4.0 μM) was added(n=5×2). 40 mM Tris-HCl buffer(pH=6.0) was added thereto so as to make the total volume 400 μl.
Thereafter, the test tubes of each Group were placed at 37° C. for 30 minutes for the preincubation. 100 μl of ATP solution (6.6 mM) was added until the reaction volume became 500 μl. After the reaction was carried out at 37° C. for 30 minutes, 25% cold trichloroacetic acid was added to terminate the enzyme reaction. The released inorganic phosphate was measured by an automatic analyzer(Express 550, Corning).
The difference between Group 1 and Group 2 represents the proton pump activity activated by K^+ only. The inhibition percentages of Groups 3 and 4 were calculated from Litchfield-wilcoxon equation[see, e.g., J. pharmacol. Exp. Ther., 96, 99(1949)]. The concentrations of the test compounds which inhibit 50% of the proton pump activity are represented as IC50 in Table 1.

| IC50 [1] [µM] | SMILES | Relative Acid Output (gastric secretion) | Rel. Vol. (gastric secretion) | Rel. Conc. (gastric secretion) |
| --- | --- | --- | --- | --- |
| 5.4 | Cc1cc(F)ccc1Nc1nccc(N2CCc3ccccc3C2C)n1.Cl (stereo not drawn) [Example 1, 2-(2-methyl-4-fluorophenylamino)-4-(1-methyl-1,2,3,4-tetrahydroisoquinolin-2-yl)pyrimidine hydrochloride] | 0.11 | 0.12 |  |
| 0.9 | Cc1cc(N2CCc3ccccc3C2C)nc(Nc2ccc(F)cc2C)n1.Cl (stereo not drawn) [Example 2, 6-methyl-2-(2-methyl-4-fluorophenylamino)-4-(1-methyl-1,2,3,4-tetrahydroisoquinolin-2-yl)pyrimidine hydrochloride] | 0.89 | 0.92 | 0.8 |
| 3.5 | Cc1cc(N2CCc3ccccc3C2C)nc(Nc2ccc(F)cc2)n1.Cl (stereo not drawn) [Example 3, 6-methyl-4-(1-methyl-1,2,3,4-tetrahydroisoquinolin-2-yl)-2-(4-fluorophenylamino)pyrimidine hydrochloride] | 0.87 | 0.76 | 0.81 |
|  | Cc1cc(N2CCc3ccccc3C2C)nc(N(C)c2ccccc2)n1.Cl (stereo not drawn) [Example 4, 6-methyl-2-(N-methylphenylamino)-4-(1-methyl-1,2,3,4-tetrahydroisoquinolin-2-yl)pyrimidine hydrochloride] | 0.87 | 0.99 | 0.56 |
| 1.3 | CCc1cc(N2CCc3ccccc3C2C)nc(Nc2ccc(F)cc2C)n1.Cl (stereo not drawn) [Example 5, 6-ethyl-2-(2-methyl-4-fluorophenylamino)-4-(1-methyl-1,2,3,4-tetrahydroisoquinolin-2-yl)pyrimidine hydrochloride] | 0.61 | 0.59 | 0.27 |
| 4.3 | CCc1cc(N2CCc3ccccc3C2C)nc(Nc2ccc(F)cc2)n1.Cl (stereo not drawn) [Example 6, 6-ethyl-2-(4-fluorophenylamino)-4-(1-methyl-1,2,3,4-tetrahydroisoquinolin-2-yl)pyrimidine hydrochloride] | 0.64 | 0.64 | 0.28 |
|  | CCc1cc(N2CCc3ccccc3C2C)nc(N(C)c2ccccc2)n1.Cl (stereo not drawn) [Example 7, 6-ethyl-2-(N-methylphenylamino)-4-(1-methyl-1,2,3,4-tetrahydroisoquinolin-2-yl)pyrimidine hydrochloride] | 0.48 | 0.51 | 0.09 |
| ~12.5 | CCc1cc(N2CCc3ccccc3C2C)nc(Nc2ccccc2C)n1.Cl (stereo not drawn) [Example 8, 6-ethyl-2-(2-methylphenylamino)-4-(1-methyl-1,2,3,4-tetrahydroisoquinolin-2-yl)pyrimidine hydrochloride] | 0.42 | 0.43 | 0.12 |
| ~10 | CCCc1cc(N2CCc3ccccc3C2C)nc(Nc2ccc(F)cc2C)n1.Cl (stereo not drawn) [Example 9, 2-(2-methyl-4-fluorophenylamino)-4-(1-methyl-1,2,3,4-tetrahydroisoquinolin-2-yl)-6-propylpyrimidine hydrochloride] | 0.3 | 0.4 |  |
| 10.6 | CCCc1cc(N2CCc3ccccc3C2C)nc(Nc2ccc(F)cc2)n1.Cl (stereo not drawn) [Example 10, 4-(1-methyl-1,2,3,4-tetrahydroisoquinolin-2-yl)-6-propyl-2-(4-fluorophenylamino)pyrimidine hydrochloride] | 0.55 | 0.58 | 0.47 |
|  | CCCc1cc(N2CCc3ccccc3C2C)nc(N(C)c2ccccc2)n1.Cl (stereo not drawn) [Example 11, 2-(N-methylphenylamino)-4-(1-methyl-1,2,3,4-tetrahydroisoquinolin-2-yl)-6-propylpyrimidine hydrochloride] | 0.82 | 0.99 | 0.41 |
| 0.6 | Cc1cc(F)ccc1Nc1nc(C)c(C)c(N2CCc3ccccc3C2C)n1.Cl (stereo not drawn) [Example 12, 5,6-dimethyl-2-(2-methyl-4-fluorophenylamino)-4-(1-methyl-1,2,3,4-tetrahydroisoquinolin-2-yl)pyrimidine hydrochloride] | 0.75 | 1.64 | 0.29 |
| 0.5 | Cc1cc(F)ccc1Nc1nc(C)c(C)c(N2CCc3ccccc3[C@H]2C)n1.Cl [Example 13, (R)-5,6-Dimethyl-2-(2-methyl-4-fluorophenylamino)-4-(1-methyl-1,2,3,4-tetrahydroisoquinolin-2-yl)pyrimidine hydrochloride] | 0.81 | 1.72 | 0.46 |
|  | CC1c2ccccc2CCN1c1nc(N(C)c2ccccc2)nc2c1CCCC2.Cl (stereo not drawn) [Example 33, 2-(N-methylphenylamino)-4-(1-methyl-1,2,3,4-tetrahydroisoquinoline-2-yl)-5,6,7,8-tetrahydroquinazoline hydrochloride] | 0.94 | 0.93 | 1.13 |
|  | Cc1cc(N2CCc3ccccc3C2)nc(N(C)c2ccccc2)n1.Cl [Example 36, 6-methyl-2-(N-methylphenylamino)-4-(1,2,3,4-tetrahydroisoquinolin-2-yl)pyrimidine hydrochloride] | 0.41 | 0.65 | 0.05 |
|  | CCc1nc(Nc2ccc(F)cc2C)nc(N2CCc3ccsc3C2C)c1C.Cl (stereo not drawn) [Example 56, 5-methyl-2-(2-methyl-4-fluorophenylamino)-4-(7-methyl-4,5,6,7-tetrahydrothieno[2,3-c]pyridin-6-yl)-6-ethylpyrimidine hydrochloride] | 0.08 | 0.01 | 0.08 |
|  | Cc1nc(N2CCc3ccccc3C2C)nc(N(C)c2ccccc2)c1C.Cl (stereo not drawn) [Example 71, 5,6-dimethyl-4-(N-methylphenylamino)-2-(1-methyl-1,2,3,4-tetrahydroisoquinolin-2-yl)pyrimidine hydrochloride] | 0.16 | 0.25 |  |
|  | Cc1nc(N2CCc3ccccc3[C@H]2C)nc(N(C)c2ccccc2)c1C.Cl [Example 72, (R)-5,6-dimethyl-4-(N-methylphenylamino)-2-(1-methyl-1,2,3,4-tetrahydroisoquinolin-2-yl)pyrimidine hydrochloride] | 0.25 | 0.34 | 0.16 |
|  | Cc1nc(N2CCc3ccccc3[C@@H]2C)nc(N(C)c2ccccc2)c1C.Cl [Example 73, (S)-5,6-dimethyl-4-(N-methylphenylamino)-2-(1-methyl-1,2,3,4-tetrahydroisoquinolin-2-yl)pyrimidine hydrochloride] | 0.13 | 0.18 |  |
|  | Cc1nc(N2CCc3ccccc3C2)nc(N(C)c2ccccc2)c1C.Cl [Example 76, 5,6-dimethyl-4-(N-methylphenylamino)-2-(1,2,3,4-tetrahydroisoquinolin-2-yl)pyrimidine hydrochloride] | 0.33 | 0.28 | 0.17 |
|  | Cc1nc(N2CCc3ccsc3C2C)nc(N(C)c2ccccc2)c1C.Cl (stereo not drawn) [Example 79, 5,6-dimethyl-4-(N-methylphenylamino)-2-(7-methyl-4,5,6,7-tetrahydrothieno[2,3-c]pyridin-6-yl)pyrimidine hydrochloride] | 0.49 | 0.54 | 1.28 |
|  | CCc1nc(N2CCc3ccccc3C2C)nc(Nc2ccc(F)cc2C)c1C.Cl (stereo not drawn) [Example 80, 5-methyl-6-ethyl-4-(2-methyl-4-fluorophenylamino)-2-(1-methyl-1,2,3,4-tetrahydroisoquinolin-2-yl)pyrimidine hydrochloride] | 0.44 | 0.32 | 0.29 |
